These results are taken from US9221811B2, “Chromone derivative having osteogenesis promoting effect” (Daiichi Sankyo Company, Limited, priority 2012, dated 2015).

This assay deals with female F344 rats. In words: Effect on bone density (oophorectomized rats, femur, DXA). It is filed as in vivo, rat. The settings on record: 25 mg/kg orally once a day, six days a week, six weeks, Dunnett's test. As to the method: Eight to 12 week old female F344 rats were purchased from Charles River Laboratories Japan, Inc. and used in the following experiment.
This test was conducted at N=8. Rats were anesthetized by the intraperitoneal administration of 40 mg/kg of Somnopentyl (purchased from Kyoritsu Seiyaku Corporation), followed by oophorectomy.
From the day after surgery, a control group received a 0.5% methyl cellulose solution (purchased from Wako Pure Chemical Industries, Ltd., Cat. No. 133-14255) alone, whereas another group received a suspension of the test compound in this solution (0.5% methyl cellulose solution), for the test.
The administration was performed orally once a day, six days a week. Six weeks after administration, the rats were euthanized by removal of whole blood from the lower abdominal aorta under Somnopentyl anesthesia, and the left and right femur was excised.
After removal of soft tissues, the bone density of the femur thus excised was measured (apparatus: DXA apparatus DCS-600R manufactured by Aloka Co., Ltd.). The bone density was assessed in the whole femur as well as in three equal sections of the whole femur, namely the proximal end, the shaft, and the distal end.
The Dunnett's test was used in certification.

Each structure is given as a SMILES string.

Turning to `COCC(=O)N1CCC(c2oc3c(C)c(O)ccc3c(=O)c2C)CC1` [Example 11, 7-Hydroxy-2-[1-(methoxyacetyl)piperidin-4-yl]-3,8-dimethyl-4H-chromen-4-one], the “bone density of the femur compared with the control group” value is “significantly increased the bone density”.
